In patent publication US4314998A, “6-Deoxyglucosamine-peptide derivatives, their production and use” (Takeda Chemical Industries, Ltd., priority 1979, dated 1982):

Test system: Meth-A fibrosarcoma cells
Test: Inhibition of growth of Meth-A fibrosarcoma in mice (compound mixed with tumor cells)
Format: in vivo
Settings: 100 μg mixed with 5×10^4 Meth-A fibrosarcoma cells, intracutaneous, female Balb/C mice
Method: For example, 100 μg of the compounds obtained in accordance with the present invention suspended in a phosphate-buffered saline and mixed with 5×10^4 Meth-A fibrosarcoma cells, followed by intracutaneous administration to female Balb/C mice. The effects to inhibit the growth of Meth-A were examined at 1 week intervals until the 4th week after the administration.

Measured: The number of tumor-free mice/the number of mice tested

2-(2-acetamido-2,6-dideoxy-6-mycoloylamino-D-glucopyranos-3-O-yl)-D-propionyl-L-alanyl-D-isoglutamine [Example 7]
10/10: week 2 | week 3 | week 4

2-(2-acetamido-2,6-dideoxy-6-mycoloylamino-D-glucopyranos-3-O-yl)-D-propionyl-L-valyl-D-isoglutamine [Example 9]
10/10: week 1 | week 2 | week 3 | week 4
